Paper PMC9296036, “A peptide interfering with the dimerization of oncogenic KITENIN protein and its stability suppresses colorectal tumour progression” (Clinical and Translational Medicine, 2022)
Ends that are not written are not given here.

Target: T1, KITENIN homodimer (Homo sapiens, UniProt Q8TAA9)
T1 construct: Lysates of 293T cells expressing full‐length KITENIN‐myc; expressed in transfected cells; host or cells: Caco2
T1 sequence (Q8TAA9 1-524): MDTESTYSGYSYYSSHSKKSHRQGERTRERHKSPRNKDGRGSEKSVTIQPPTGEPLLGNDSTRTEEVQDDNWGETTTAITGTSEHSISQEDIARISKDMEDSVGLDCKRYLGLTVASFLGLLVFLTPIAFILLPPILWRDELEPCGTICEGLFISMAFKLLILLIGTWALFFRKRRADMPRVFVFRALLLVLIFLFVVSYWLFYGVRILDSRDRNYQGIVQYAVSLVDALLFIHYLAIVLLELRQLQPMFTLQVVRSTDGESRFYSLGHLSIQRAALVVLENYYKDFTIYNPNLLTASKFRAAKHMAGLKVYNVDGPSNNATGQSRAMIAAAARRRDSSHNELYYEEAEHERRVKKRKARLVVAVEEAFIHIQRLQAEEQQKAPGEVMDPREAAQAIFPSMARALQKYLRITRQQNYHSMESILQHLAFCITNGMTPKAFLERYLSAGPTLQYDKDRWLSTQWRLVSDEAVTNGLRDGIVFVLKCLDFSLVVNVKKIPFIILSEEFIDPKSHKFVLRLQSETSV
Experiment: KITENIN homodimerization in Caco2 cells co-expressing KITENIN-V5/Myc (co-immunoprecipitation)
Type: cell-based
Text: Antibodies against the following proteins were obtained from the indicated suppliers: Na^+/K^+ ATPase, GFP and tubulin (Santa Cruz Biotechnology); c‐Jun, p‐c‐Jun, ERK, p‐ERK, c‐MET, p‐c‐MET and GST (Cell Signaling Technology); V5, Myc (MBL); HA and β‐actin (Sigma); KITENIN (Atlas); His and RACK1, LC3, p62, Myo10, and eukaryotic elongation factor 2 (eEF2) (Abcam). They were used with appropriate secondary antibodies (Thermo). For transient transfection analyses, Caco2, HCT116 and 293T cells were transfected with various plasmids and harvested for immunoblot analysis 48 h after transfection. For most assays using stable cell lines, mixed polyclonal cells were used to exclude clonal variation. […]
FIGURE 2 KAI1 C‐terminal interacting tetraspanin (KITENIN) dimerization‐interfering peptide (KDIP) suppresses KITENIN‐induced enhanced cell invasion through the inhibition of the homodimerization of KITENIN. […] After 48 h of treatment, KITENIN transcripts in cells were analysed by the 2^−ΔΔ ^CT method using Q‐PCR. […] Caco2 cells were co‐transfected with KITENIN‐V5/Myc and treated with or without KDIP or scrambled peptide (scr) and were immunoprecipitated with anti‐V5 antibody and detected by indicated antibodies. Numerals indicated a quantification of the MYC bands normalized to the corresponding V5 bands (left panel). […] Numerals indicated a quantification of the bands observed (left panel). […]

inhibition of dimerization and cell invasion caused by KITENIN overexpression, rank among the 7 peptides of the 449-487 region (Caco2 cells co-expressing KITENIN-Myc and KITENIN-V5, co-IP and invasion assay): most effective | homodimerization of KITENIN in cells (in words) (Caco2 cells co-transfected with KITENIN-V5/Myc, co-IP): reduced
Sequence: YARVRRRGPRRWRLVSDEAV [KDIP]
